Results: US5821231A, “CS-1 peptidomimetics, compositions and methods of using same” (Cytel Corporation, priority 1995, dated 1998)
Square brackets hold non-standard residues; d marks the D form. Peptide text beside a SMILES is read from it. * marks the point of attachment. PhAc = O=C(Cc1ccccc1)*

What was measured:
[1] = Retention of potency in PBS containing 10 percent mouse or human serum; format: in vitro ADME; conditions: 24 hours in PBS at 7.2-7.4 containing 10 percent mouse or human serum
BALB/c mice = assay: Adoptive transfer delayed type hypersensitivity in mice (oxazolone); format: in vivo, mouse
Method: An adoptive transfer delayed-type hypersensitivity murine model has been developed using splenic T cells primed to oxazolone. This model is described in Elices et al., Clin. Exp. Rheum., 11(Suppl. 8):577-580 (1993), whose procedures were followed here.
Thus, BALB/c mice were shaved on the belly and painted (50 μl on the belly and 5 μl on each paw) with three percent oxazolone in acetone/olive oil (4:1) at days zero and 1. At day 5, the mice were sacrificed, their spleens removed, and splenic T cells were obtained via nylon wool columns.
Normal saline or saline containing 25×10^6 /animal of the oxazolone-immune T cells were separately injected into naive mice. The mice were then challenged by painting 10 μl of 2 percent oxazolone onto one ear each. All procedures were carried out under sterile conditions and in endotoxin-free buffers.
Prior to challenge or saline injection, the mice were implanted with pumps that subcutaneously administered normal saline, normal saline containing the compound, Compound ID No. 896.52, N-phenylacetyl-Leu-Asp-Phe-D-Pro-NH2, or normal saline containing a compound with a scrambled sequence continually at 6 mg/kg/day for a 24-hour time period. The swelling diameter at the site of challenge or saline injection was measured with a microcaliper 24 hours thereafter.
An expanded study was carried out as described above except that a scrambled compound control was not used as a control for further inhibitor compounds of Table 1 with larger groups of mice. Statistical analyses were carried out versus injection of vehicle alone.

[2] = tested on: New Zealand white rabbits; assay: Rabbit heterotopic cardiac allograft model; format: in vivo
Description: New Zealand white female rabbits (Charles River Lab., Saint Laurent, Quebec), between 3.5 and 4 kg underwent heterotopic cardiac transplant following an experimental protocol previously described [Alonso et al., Am. J. Pathol., 87:415-442 (1977); Clausell et al., Circulation, 89:2768-2779 (1994)]. The animals were unselected to favor an HLA-mismatch, the host rabbits were Pasteurella-free and the donors, outbred animals. Both host and donor rabbits were fed Purina 5321-0.5 percent cholesterol diet (Research Diets Inc., New Brunswick, N.J.), a strategy that has proven useful in accelerating the process of allograft arteriopathy [Alonso et al., Am, J. Pathol., 87:415-442 (1977)]. The diet was commenced four days prior to the transplant and continued in the recipient of the transplant until the completion of the experimental period.
The technique of heterotopic cardiac transplantation has been previously described [Clausell et al., Circulation, 89:2768-2779 (1994)]. Briefly, a vertical incision was performed in the anterior aspect of the neck of the recipient rabbit and the left common carotid artery and the ipsilateral external jugular vein were isolated. The cardiac allograft was placed in the neck by anastomosing the aorta end-to-side to the recipient's carotid artery and the pulmonary end-to-side to the recipient's external jugular vein, following a total period of ischemia for the donor hearts of approximately 30 minutes. Postoperative care was in compliance with the Principles of Laboratory Animal Care formulated by the Canadian National Society for Medical Research.
Beginning the day of the transplant, the animals were randomized and treated with either scrambled compound (control group) at 1 mg/kg s.c. or the inhibitor compound at 1 mg/kg s.c. The doses of the compounds were empirically extrapolated to the in vivo model based on preliminary in vitro studies, of Table 1. No other immunosuppression therapy was administered. The grafts were monitored daily by palpation and maintained for 7 to 8 days, a previously described endpoint that was associated with myocardial rejection (impaired cardiac contractility) and development of the allograft arteriopathy in this model [Clausell et al., Circulation, 89:2768-2779 (1994)]. A total of fourteen animals were studied in the control (n=7) and treated (n=7) groups.
The animals were sacrificed using a lethal dose of euthanol (480 mg i.v.) (MTC Pharmaceutical, Cambridge, ON), host and donor hearts were removed, and the coronary arteries were perfused with saline through the aorta, followed by light fixation by perfusion with 2 percent paraformaldehyde (Sigma, St, Louis, Mo.). […] Different sections of the hearts were either saved in 10 percent formalin (BDH Inc., Toronto, ON) for light microscopy studies or immediately frozen in O.T.C. Compound Tissue Tek (Miles Inc., Elkart, Ind.) for specific immunohistochemistry studies.
Three different paraffin-embedded tissue sections from host and donor hearts from both control and treated rabbits were stained by the Movat pentachrome method for light microscopy. Morphometric analysis was performed using a Zeiss microscope attached to a computer-generated video analysis system (Perceptics Inc., NuVision software), as described in Clausell et al., Circulation, 89:2768-2779 (1994). The number of vessels with intimal lesions were counted in all three heart sections from each animal studied and are expressed as a percentage of the total vessel number.
In the host hearts, 999 vessels in the control group and 1054 vessels in the treated group were analyzed. In the donor hearts, 827 vessels in the control group and 617 vessels in the treated group were analyzed. To determine the severity of intimal thickening, the diameter of each traceable vessel in all three sections was measured and the coronary arteries were categorized as small (diameter <100 μm), medium (diameter >100<500 μm) and large (diameter >500 μm). […]

[3] = tested on: Porcine peripheral blood lymphocytes; assay: In vitro porcine allograft model: transendothelial lymphocyte migration; format: cell-based; conditions: 10 μg/ml in the medium; IL-1β-stimulated SMC
Method: A similar study was carried out in vitro using porcine coronary artery endothelial cells (EC; as are present in the IEL) and smooth muscle cells (SMC; as are present in the medial layer of the artery). The two cell types were cultured using a membrane transwell system, with the SMC on the bottom layer in M-199 medium (Gibco Labs.). The SMC were stimulated with 100 ng/ml of interleukin-1β (IL-1β) for 24 hours prior to the start of the assay. Porcine peripheral blood lymphocytes were separated by Ficoll-Hypaque, radiolabeled and incubated overnight (about 18 hours) on the EC.

SJL/J mice = assay: Experimental autoimmune encephalomyelitis in mice; format: in vivo; conditions: 1 mg/mouse i.p. at days 8 and 9; FIG. 6; versus control compound
Method: EAE was induced in female SJL/J mice (8 to 14 weeks old) by immunization on day zero with 50 μg of a compound corresponding to positions 139-151 of PLP emulsified in a 1:1 mixture of PBS and complete Freund's adjuvant (CFA). Each mouse was injected with 0.2 ml of the adjuvant emulsion subcutaneously (s.c.) at two sites in the hind flank. All mice received 10^7 killed Bordetella pertussis units in 100 μl were injected intravenously 24 to 72 hours later.
Mice were observed daily, beginning at day 8 for clinical signs of EAE, and disease was scored on a scale of 0-5 as: 0=no disease; 1=floppy tail; 2=moderate hind limb weakness; 3=paraparesis; 4=paraplegis with moderate forelimb weakness; 5=qualdriplegis or premoribund state.
The inhibitor compound, Compound ID No. 896.52, N-phenylacetyl-Leu-Asp-Phe-D-Pro-NH2 was administered intraperitoneally at 1 mg/mouse in 0.2 ml of incomplete Freund's adjuvant at days 8 and 9. A compound having a scrambled sequence [N-phenylacetyl-Asp-Leu-Phe-D-Pro-NH2 ] was similarly administered to serve as a control.
Summed or averaged scores for clinical signs were plotted vs. time. The area under the resulting curves was calculated between day 8 and day 35 to calculate percentage inhibition of EAE by an inhibitor compound. The percent inhibition was calculated as follows:
[…]

asthmatic sheep = assay: Treatment of asthmatic sheep (Ascaris suum antigen, crossover); format: in vivo; conditions: nebulized 1 mg/kg; FIG. 7
Method: Six asthmatic sheep were treated in a double blind cross-over study. […] This study was carried out generally as described in Abraham et al., J. Clin. Invest., 93:776-787 (1994).
The inhibitor compound used here was Compound ID No. 896.52, N-phenylacetyl-Leu-Asp-Phe-D-Pro-NH2, with a control compound that comprised the previously described compound having the same residues in a scrambled sequence. The vehicle for the nebulized compounds was phosphate-buffered saline. The compounds were administered at a dose of 1 mg/kg each, twice a day for three days prior to challenge, as well as 0.5 hours prior to and four hours post challenge on day 4. Because this was a crossover study, each animal received one or the other treatment, followed by a rest and then the other treatment. Each animal therefore served as its own control.
Post challenge airway responsiveness was also assayed. Here, specific lung resistance, SRL, returned to baseline values 24 hours after challenge, however, the sheep were hyperresponsive to inhaled carbachol at that time.

SMILES: CC(C)C[C@H](NC(=O)Cc1ccccc1)C(=O)N[C@@H](CC(=O)O)C(=O)N[C@@H](Cc1ccccc1)C(=O)N1CCC[C@@H]1C(N)=O [896.52, N-phenylacetyl-Leu-Asp-Phe-D-Pro-NH2] (PhAc-LDF[dP]-NH2)
- loss of potency in serum [1]: no loss of potency
- Percent Inhibition (post-challenge swelling) (BALB/c mice; expanded study, versus vehicle alone): 36%
- reduction of inflammation (swelling diameter at challenge site) (BALB/c mice; initial study, 6 mg/kg/day s.c. pump, 24-hour, FIG. 5): reduced this type of CS-1/VLA-4-mediated immunoinflammation
- Vessel Intimal Thickening: Percent of Vessels ([2]; donor heart, 1 mg/kg s.c.): 35%
- Vessel Intimal Thickening: Severity (Percent of Vessel area) ([2]; donor heart, 1 mg/kg s.c.): 16%
- Baseline of incidence of intimal thickening ([2]; rabbit own host heart): 12%
- Baseline of severity of intimal thickening ([2]; rabbit own host heart): 12%
- reduction of transendothelial lymphocyte migration [3]: about 30%
- clinical signs of EAE (SJL/J mice): marked improvement in clinical signs
- change from baseline specific lung resistance (SRL) on challenge (asthmatic sheep): less of a change from baseline specific lung resistance
